Columns and labels:
[1] = tested on: Echinochloa oryzoides (Ard.) Fritsch.; experiment: Preemergence weed control under flooded paddy conditions, ECHORC (Watergrass (Calif.)); assay type: in vivo; settings: flooded paddy; for ECHORC herbicidal effect rating / herbicidal effect rating, ECHORC: preemergence, rated three to four weeks after treatment; for ECHORC: preemergence weeds, herbicidal effect rating 0-9, three to four weeks after treatment; as to herbicidal effect rating, ECHORC: meaning of each grade not given here
Cyperus iria = experiment: Preemergence weed control under flooded paddy conditions, CYPIR (Rice Flatsedge); assay type: in vivo; settings: flooded paddy; for CYPIR herbicidal effect rating / herbicidal effect rating, CYPIR: preemergence, rated three to four weeks after treatment; for CYPIR: preemergence weeds, herbicidal effect rating 0-9, three to four weeks after treatment; as to herbicidal effect rating, CYPIR: meaning of each grade not given here
[2] = tested on: Monochoria vaginalis, Presl.; experiment: Preemergence weed control under flooded paddy conditions, MOOVA (Monochoria); assay type: in vivo; settings: flooded paddy; for MOOVA herbicidal effect rating / herbicidal effect rating, MOOVA: preemergence, rated three to four weeks after treatment; for MOOVA: preemergence weeds, herbicidal effect rating 0-9, three to four weeks after treatment; as to herbicidal effect rating, MOOVA: meaning of each grade not given here
Sagittaria pygmaea, L. = experiment: Preemergence weed control under flooded paddy conditions, SAGPY (Arrowhead (Pygmaea)); assay type: in vivo; settings: flooded paddy; for SAGPY herbicidal effect rating / herbicidal effect rating, SAGPY: preemergence, rated three to four weeks after treatment; for SAGPY: preemergence weeds, herbicidal effect rating 0-9, three to four weeks after treatment; as to herbicidal effect rating, SAGPY: meaning of each grade not given here
[3] = tested on: Cyperus serotinus, Rottb.; experiment: Preemergence weed control under flooded paddy conditions, CYPSE (Flatsedge); assay type: in vivo; settings: for CYPSE herbicidal effect rating / herbicidal effect rating, CYPSE: preemergence, rated three to four weeks after treatment; for CYPSE: preemergence weeds, herbicidal effect rating 0-9, three to four weeks after treatment; as to herbicidal effect rating, CYPSE: meaning of each grade not given here
[4] = tested on: Oryza sativa, (L.) Tebonnet; experiment: Rice tolerance to post-transplant applications under flooded paddy conditions (Example 187), ORYSAT (Rice, Tebonnet); settings: for ORYSAT herbicidal effect rating / herbicidal effect rating ORYSAT: rated three to four weeks after treatment; for ORYSAT: herbicidal effect rating 0-9, three to four weeks after treatment

Compound: C#CCn1c(C(F)(F)F)cc(=O)n(-c2ccc3snc(C)c3c2)c1=O [Example 217, 3-(3-Methyl-1,2-benzisothiazol-5-yl)-1-(2-propynyl)-6-(trifluoromethyl)-2,4(1H,3H)-pyrimidinedione]
- ECHORC herbicidal effect rating ([1]; Rate 0.0313 kg/ha): 0.0
- ECHORC herbicidal effect rating ([1]; Rate 0.0625 kg/ha): 0.0
- ECHORC herbicidal effect rating ([1]; Rate 0.1250 kg/ha): 0.0
- ECHORC herbicidal effect rating ([1]; Rate 0.2500 kg/ha): 0.0
- CYPIR herbicidal effect rating (Cyperus iria; Rate 0.0313 kg/ha): 0.0
- CYPIR herbicidal effect rating (Cyperus iria; Rate 0.0625 kg/ha): 0.0
- CYPIR herbicidal effect rating (Cyperus iria; Rate 0.1250 kg/ha): 0.0
- CYPIR herbicidal effect rating (Cyperus iria; Rate 0.2500 kg/ha): 0.0
- MOOVA herbicidal effect rating ([2]; Rate 0.0313 kg/ha): 2.0
- MOOVA herbicidal effect rating ([2]; Rate 0.0625 kg/ha): 4.0
- MOOVA herbicidal effect rating ([2]; Rate 0.1250 kg/ha): 7.0
- MOOVA herbicidal effect rating ([2]; Rate 0.2500 kg/ha): 7.0
- SAGPY herbicidal effect rating (Sagittaria pygmaea, L.; Rate 0.0313 kg/ha): 0.0
- SAGPY herbicidal effect rating (Sagittaria pygmaea, L.; Rate 0.0625 kg/ha): 0.0
- SAGPY herbicidal effect rating (Sagittaria pygmaea, L.; Rate 0.1250 kg/ha): 0.0
- SAGPY herbicidal effect rating (Sagittaria pygmaea, L.; Rate 0.2500 kg/ha): 0.0
- CYPSE herbicidal effect rating ([3]; Rate 0.0313 kg/ha): 0.0
- CYPSE herbicidal effect rating ([3]; Rate 0.0625 kg/ha): 0.0
- CYPSE herbicidal effect rating ([3]; Rate 0.1250 kg/ha): 0.0
- CYPSE herbicidal effect rating ([3]; Rate 0.2500 kg/ha): 0.0
- ORYSAT herbicidal effect rating ([4]; Rate 0.0313 kg/ha): 2.0
- ORYSAT herbicidal effect rating ([4]; Rate 0.0625 kg/ha): 2.0
- ORYSAT herbicidal effect rating ([4]; Rate 0.1250 kg/ha): 3.0
- ORYSAT herbicidal effect rating ([4]; Rate 0.2500 kg/ha): 4.0

Compound: COc1cc(C(Br)Br)ccc1-c1nsc2ccc(-n3c(=O)cc(C(F)(F)F)n(C)c3=O)cc12 [Example 447, 2,4(1H,3H)-Pyrimidinedione, 3-[3-(alpha,alpha-dibromo-2-methoxy-p-tolyl)-1,2-benzisothiazol-5-yl]-1-methyl-6-(trifluoromethyl)-]
- ECHORC ([1]; 0.0320 kg/ha): 4.0
- ECHORC ([1]; 0.0620 kg/ha): 6.0
- ECHORC ([1]; 0.1250 kg/ha): 7.0
- ECHORC ([1]; 0.2500 kg/ha): 9.0
- CYPIR (Cyperus iria; 0.0320 kg/ha): 4.0
- CYPIR (Cyperus iria; 0.0620 kg/ha): 6.0
- CYPIR (Cyperus iria; 0.1250 kg/ha): 7.0
- CYPIR (Cyperus iria; 0.2500 kg/ha): 9.0
- MOOVA ([2]; 0.0320 kg/ha): 7.0
- MOOVA ([2]; 0.0620 kg/ha): 9.0
- MOOVA ([2]; 0.1250 kg/ha): 9.0
- MOOVA ([2]; 0.2500 kg/ha): 9.0
- SAGPY (Sagittaria pygmaea, L.; 0.0320 kg/ha): 4.0
- SAGPY (Sagittaria pygmaea, L.; 0.0620 kg/ha): 4.0
- SAGPY (Sagittaria pygmaea, L.; 0.1250 kg/ha): 5.0
- SAGPY (Sagittaria pygmaea, L.; 0.2500 kg/ha): 9.0
- CYPSE ([3]; 0.0320 kg/ha): 0.0
- CYPSE ([3]; 0.0620 kg/ha): 0.0
- CYPSE ([3]; 0.2500 kg/ha): 4.0
- ORYSAT ([4]; 0.0320 kg/ha): 4.0
- ORYSAT ([4]; 0.0620 kg/ha): 4.0
- ORYSAT ([4]; 0.1250 kg/ha): 5.0
- ORYSAT ([4]; 0.2500 kg/ha): 7.0

Compound: CCCCS(=O)(=O)NC(=O)COc1ccc(C)cc1-c1nsc2ccc(-n3c(=O)cc(C(F)(F)F)n(C)c3=O)cc12 [Example 573, Acetamide, N-(butylsulfonyl)-2-{{2-{5-[3,6-dihydro-3-methyl-2,6-dioxo-4-(trifluoromethyl)-1(2H)-pyrimidinyl]-1,2-benzisothiazol-3-yl}-p-tolyl}oxy}-]
- herbicidal effect rating, ECHORC ([1]; Rate 0.0320 kg/ha): 6.0
- herbicidal effect rating, ECHORC ([1]; Rate 0.0620 kg/ha): 7.0
- herbicidal effect rating, ECHORC ([1]; Rate 0.1250 kg/ha): 7.0
- herbicidal effect rating, ECHORC ([1]; Rate 0.2500 kg/ha): 7.0
- herbicidal effect rating, CYPIR (Cyperus iria; Rate 0.0320 kg/ha): 0.0
- herbicidal effect rating, CYPIR (Cyperus iria; Rate 0.0620 kg/ha): 3.0
- herbicidal effect rating, CYPIR (Cyperus iria; Rate 0.1250 kg/ha): 5.0
- herbicidal effect rating, CYPIR (Cyperus iria; Rate 0.2500 kg/ha): 5.0
- herbicidal effect rating, MOOVA ([2]; Rate 0.0320 kg/ha): 9.0
- herbicidal effect rating, MOOVA ([2]; Rate 0.0620 kg/ha): 9.0
- herbicidal effect rating, MOOVA ([2]; Rate 0.1250 kg/ha): 9.0
- herbicidal effect rating, MOOVA ([2]; Rate 0.2500 kg/ha): 9.0
- herbicidal effect rating, SAGPY (Sagittaria pygmaea, L.; Rate 0.0320 kg/ha): 0.0
- herbicidal effect rating, SAGPY (Sagittaria pygmaea, L.; Rate 0.0620 kg/ha): 0.0
- herbicidal effect rating, SAGPY (Sagittaria pygmaea, L.; Rate 0.1250 kg/ha): 0.0
- herbicidal effect rating, SAGPY (Sagittaria pygmaea, L.; Rate 0.2500 kg/ha): 2.0
- herbicidal effect rating, CYPSE ([3]; Rate 0.0320 kg/ha): 0.0
- herbicidal effect rating, CYPSE ([3]; Rate 0.0620 kg/ha): 0.0
- herbicidal effect rating, CYPSE ([3]; Rate 0.1250 kg/ha): 0.0
- herbicidal effect rating, CYPSE ([3]; Rate 0.2500 kg/ha): 4.0
- herbicidal effect rating ORYSAT ([4]; Rate 0.0320 kg/ha): 0.0
- herbicidal effect rating ORYSAT ([4]; Rate 0.0620 kg/ha): 0.0
- herbicidal effect rating ORYSAT ([4]; Rate 0.1250 kg/ha): 0.0
- herbicidal effect rating ORYSAT ([4]; Rate 0.2500 kg/ha): 1.0

Reference: EP0908457B1, “3-(1,2-benzisothiazol- and isoxazol-5-Y1)-2,4(1H,3H)-pyrimidinedione or thione and 3-(1,2-benzisothiazol- and isoxazol-5-y1)-4(3H)-pyrimidinone or thione herbicidal agents” (BASF AKTIENGESELLSCHAFT, priority 1997, dated 1999)
